Laboratory results as given in article PMC5061557 (Structure (London, England : 1993), 2016).

Columns and labels:
WTHslU = WTHslU (Escherichia coli, UniProt P0A6H5); test: NADH-coupled ATPase assay; type: biochemical; conditions: 5 mM ATP, pH 7.5, 20 mM MgCl2, 37 °C, without HslV
crystal structure = target: the molecule itself; test: crystal structure

Sequence of WTHslU (P0A6H5 whole entry): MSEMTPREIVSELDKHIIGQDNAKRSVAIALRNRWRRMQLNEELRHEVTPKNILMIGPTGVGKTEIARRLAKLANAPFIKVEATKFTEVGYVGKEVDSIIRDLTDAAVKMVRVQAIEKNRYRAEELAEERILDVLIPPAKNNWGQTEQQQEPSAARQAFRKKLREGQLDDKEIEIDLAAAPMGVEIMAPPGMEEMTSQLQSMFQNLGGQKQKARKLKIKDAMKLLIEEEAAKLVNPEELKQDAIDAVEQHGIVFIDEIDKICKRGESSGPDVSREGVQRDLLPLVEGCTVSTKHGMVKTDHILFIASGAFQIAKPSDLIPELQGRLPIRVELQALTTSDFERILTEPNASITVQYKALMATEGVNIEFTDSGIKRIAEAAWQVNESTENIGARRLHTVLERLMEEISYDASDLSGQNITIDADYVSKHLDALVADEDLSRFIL

## Nc1ncnc2c1ncn2[C@@H]1O[C@H](COP(=O)(O)OP(=O)(O)OP(=O)(O)O)[C@@H](O)[C@H]1O [ATP]
WTHslU
  NADH-coupled ATPase assay: assayed rates of ATP hydrolysis for this enzyme and wild type

B1: E. coli L199Q HslU mutant with an N-terminal H6 tag (enzyme, UniProt P0A6H5 1-443, looked up)
chain: MSEMTPREIVSELDKHIIGQDNAKRSVAIALRNRWRRMQLNEELRHEVTPKNILMIGPTGVGKTEIARRLAKLANAPFIKVEATKFTEVGYVGKEVDSIIRDLTDAAVKMVRVQAIEKNRYRAEELAEERILDVLIPPAKNNWGQTEQQQEPSAARQAFRKKLREGQLDDKEIEIDLAAAPMGVEIMAPPGMEEMTSQQQSMFQNLGGQKQKARKLKIKDAMKLLIEEEAAKLVNPEELKQDAIDAVEQHGIVFIDEIDKICKRGESSGPDVSREGVQRDLLPLVEGCTVSTKHGMVKTDHILFIASGAFQIAKPSDLIPELQGRLPIRVELQALTTSDFERILTEPNASITVQYKALMATEGVNIEFTDSGIKRIAEAAWQVNESTENIGARRLHTVLERLMEEISYDASDLSGQNITIDADYVSKHLDALVADEDLSRFIL
Crystal structure
  stoichiometry N: 6
